Experimental data taken from US20220411847A1, “GLUCOSE/GALACTOSE BIOSENSORS AND METHODS OF USING SAME” (Duke University, priority 2015, published 2022).

Assays:
[1] = Glucose titration at room temperature on Nanodrop3300 fluorimeter; format: binding
Experimental: (§1) In addition to the Roche LightCycler, which has a limited choice of emission wavelengths, data for selected mutants also was measured at room temperature on a Nanodrop3300 (Thermo Scientific) fluorimeter, which records full emission spectra. Emission intensities at a particular wavelength were extracted by integration of the spectral emission intensities over a 20-nm interval centered on that wavelength.
(§2) Signals S (either single-wavelength emission intensities, LT, or ratios of intensities at two wavelengths, Rig) were fit to ligand-binding isotherms:
(§3) where [L] is the ligand concentration and Kd the dissociation constant corresponding to ^appKd or ^trueKd for fits to R12 (weighted by the relative contributions of ^satβ at the two different wavelengths) and Iλ respectively. For a given isothermal titration, values for ^appKd and ^true Kd were obtained using a non-linear fitting algorithm in which these two parameters were simultaneously fit to the three experimental binding isotherms using equations 29 and 30, with the two monochromatic isotherms sharing the same ^trueKd value. Three separate pairs of ^apoβ and ^satβ were fit in this procedure.

[2] = Thermal denaturation followed by fluorescence ratio, two-state fit; format: physicochemical; conditions: for Tm/K: thermal stability of the 183C acrylodan conjugate mutant
Experimental: (§4) The titration series were mixed with GGBP183C⋅acrylodan or BD_SM4⋅acrylodan conjugates in 384-well microtiter plates. The temperature dependence of the titrations was measured in a real-time PCR machine (Roche LightCycler 480) by determining the ratio of fluorescence emission intensities at 488, 510, and 580 nm (excitation at 440 nm) as a function of temperature (290-370K). Temperatures were advanced in 1K steps. At each temperature data was collected for at 1-second intervals for 60 seconds at which point the signal had relaxed to a steady value associated with the new temperature. Collection times were adjusted to minimize photobleaching (which was not detectable under these experimental conditions). Data reduction software was developed to convert these observations into time-independent datasets that record fluorescence as a function of temperature for each well and associate wells with their concentration of titrant and additive. Management tools were developed to maintain a database of titrations and their analyses.
Fits of these equation systems to experimental observations such as shown in FIG. 5 require good initial estimates of the parameters. These can then be refined using multi-dimensional conjugate gradient methods. To obtain local fits for protein thermostability in the absence of ligand we solve
This gives excellent fits (FIG. 7).

[3] = Fluorescence emission response to ligand binding; parameters: key to Response Intensity^c: +, increases in response to ligand; —: decreases; 0, no change in the glucose titration; key to Response Shape^b: m, monochromatic; d, dichromatic (i.e. spectral shape changes); 0, no change in the glucose titration; conditions: for Response Intensity^c / Response Shape^b: glucose titration, Nanodrop3300, room temperature
Experimental: as §4, §1

[4] = Galactose affinities of the mutants that bind glucose (Roche LightCycler); format: binding; conditions: trueKd at 25° C., 183C acrylodan conjugates, read-out: Kd^298K(galactose)/mM
From the text: (§5) Analysis of mutant affinity values: Isothermal glucose titrations were extracted from the fluorescent landscape or emission datasets as described above. Monochromatic emission intensities Iλ. (these intensities correspond to a bandpass intensity recorded with a physical filter in the case of the Roche LightCycler) were fit to
(§6) where ^apoIλ2 ^apoIλ2 and ^satIλ2^satIλ2 are the emission intensities of the monochromatic signal at wavelength λ2λ2 of the ligand-free and ligand-bound protein, respectively. Equation 28 illustrates that the ^appKd ^appKd values obtained by fits of 25 to ratiometric signals are wavelength dependent. To obtain wavelength-independent values needed for comparison of mutant proteins, it is necessary to simultaneously fit ^appKd ^appKd to the ratiometric signal and ^trueKd ^trueKd to the two monochromatic signals. For a given isothermal titration, values for ^appKd ^appKd and ^trueKd ^trueKd were obtained using a non-linear fitting algorithm in which these two parameters were simultaneously fit to the three experimental binding isotherms using equations 23 and 27, with the two monochromatic isotherms sharing the same ^trueKd ^trueKd value. Three separate pairs of linear ^apoβ ^apoβ and ^satβ ^satβ baselines were fit in this procedure. TABLES 1-5 record the ^trueKd ^trueKd values at 25° C., obtained by analysis of Roche LightCycler data in 488 nm and 510 nm channels. The uncertainty of the fit (‘error’) was obtained using a boot-strapping technique in which 37% of the data was replicated. In all cases, no binding was recorded if one of ^appKd ^appKd or ^trueKd ^trueKd exceeded 200 mM. The glucose constant of GGBP183 C-acrylodan is 4.21±0.08 mM at 25° C.
The galactose affinities for those mutants that bind glucose were also determined.

[5] = Galactose titration at room temperature on Nanodrop3300 fluorimeter; format: binding; conditions: ^e noisy data
Experimental: as §1, §2, §3

[6] = Isothermal glucose titrations from fluorescent landscapes (Roche LightCycler); format: binding
[7] = as above; format: binding; remark: listed apart in the source
Experimental: as §4
The response of acrylodan to glucose binding was separated from the effects of thermal denaturation by extracting binding isotherms within the temperature range where the apo-protein remains >99% folded (T<320 K; FIG. 7). Within this temperature range, binding isotherms were constructed by extracting fluorescence values across different wells, each containing different glucose concentrations, at a given temperature, and fit individually with high accuracy to isotherms (FIG. 8):
using linear baselines which vary individually in accordance with the tilt of the S, S1, and S2 baseplanes that correspond the saturated glucose complex. The individually fit Kd(T) values were converted into ΔGb(T) and fit to the Gibbs-Helmholtz equation 9 (FIG. 9).
as §5, §6

[8] = Ca2+ binding followed through thermal stability shifts in the absence of glucose; conditions: 37° C.
From the text: GGBP binds Ca^2+ at a location remote from glucose (FIG. 1). The binding of Ca^2+ was investigated in the absence of glucose (FIG. 12). […] Nevertheless, Ca^2+ binding can be followed through its effect on protein stability (FIG. 13). […] However, at elevated concentrations, this stabilization effect levels off and addition of Ca^2+ becomes destabilizing. […] These effects can be modeled accurately by a fit of the ligand- and temperature-dependent free energy of stability for Ca^2+ (Judge et al. Diabetes Technol. Thera. 2011, 13, 309-317; Layton et al. Biochemistry 2010, 49, 10831-10841). The individual terms are cast in terms of T and [Ca^2+] using equations 4-9. However, rather than fitting fluorescent landscape data directly using 1, Tm and ΔHu, values are extracted at each Ca^2+ concentration using 16 and 17, and fit to the equation system by determining the root of 19 to obtain the calculated Tm value.

[9] = apparent, ratiometric signal at the listed wavelength pair, read-out: Affinities (mM)^d Glucose aPPKa
[10] = from monochromatic signals, read-out: Affinities (mM)^d Glucose trueKa
[11] = apparent, ratiometric signal at the listed wavelength pair, read-out: Affinities (mM)^d Galactose ^appKd
[12] = from monochromatic signals, read-out: Affinities (mM)^d Galactose ^trueKd
[13] = 37° C., mutations in GGBP183C⋅acrylodan, read-out: glucose Kd values at 37° C.
[14] = trueKd at 25° C., 183C acrylodan conjugates, LightCycler 488 nm and 510 nm channels, ± = bootstrap uncertainty of fit, read-out: Kd^298K(glucose)/mM

Substance | Kd [1, 9] [mM] | Kd [1, 10] [mM] | Tm/K [2] [K] | effect of glucose binding on fluorescence ([3]; 488/580 ratio) | Response Intensity^c [3] | Response Shape^b [3] | Kd [4] [mM] | Kd [5, 11] [mM] | Kd [5, 12] [mM] | Kd [6, 13] [µM] | Kd [7, 14] [mM] | Kd ([8]; read-out: Ca^2+ affinity in the native state at a single site) [µM] | Kd ([8]; read-out: calculated Kd for Ca2+, single folded state site) [µM] | Kd ([8]; read-out: calculated Kd for Ca2+, single, medium-affinity denatured state) [µM] | Kd ([8]; read-out: calculated Kd for Ca2+, two, low-affinity denatured states) [µM] | apoTm ([2]; apo-protein, two-state fit) [K] | ΔapoHu ([2]; apo-protein, two-state fit) [kcal/mol] | Kd ([6]; 37° C. (310K), fit of equation 18, read-out: Kd, glucose binding isotherm) [µM] | decrease in the affinity for glucose compared to the wild-type protein [7] | Kd ([7]; 25° C., read-out: glucose constant) [mM]
A155N: GGBP 183C acrylodan conjugate with mutation A155N | 0.14 | 0.23 | 320 | increases the 488/580 ratio | — | d | 7.5 ± 1 | 4.5 | 6.6 | ~13000 | 5.9 ± 1 |  |  |  |  |  |  |  |  | 
E149K: GGBP 183C acrylodan conjugate with mutation E149K | 1.5 | 1.2 | 321 |  | — | d | 40.2 ± 1.3 | 34 | 27 | ~500 | 1.44 ± 0.04 |  |  |  |  |  |  |  |  | 
E149Q: GGBP 183C acrylodan conjugate with mutation E149Q | 0.6 | 0.43 | 322 |  | — | d | 10.8 ± 0.4 | 2.3 | 2.1 | ~500 | 0.46 ± 0.01 |  |  |  |  |  |  |  |  | 
E149S: GGBP 183C acrylodan conjugate with mutation E149S | 0.38 | 0.36 | 320 |  | — | d | 12.7 ± 15 | 6.8 | 5.4 | ~500 | 0.34 ± 0.01 |  |  |  |  |  |  |  |  | 
GGBP183C⋅acrylodan: E. coli glucose-galactose binding protein W183C mutant conjugated to acrylodan; parent sensor | 6 | 4.4 |  |  | — | d |  | 31 | 24 |  |  | ~0.01 | 0.0108 | 370 | 8800 | 322.2 | 197.3 | 6580 ± 30 | 10,000 fold | 4.21 ± 0.08
